Assays:
Myzus persicae = Myzus persicae - spray test; type: in vivo; conditions: foliar, 144 h, application rate 500 g/ha, after 6 days, Chinese cabbage leaf discs, all stages of green peach aphid, 100% = all aphids killed, read-out: efficacy
Description: To produce further test concentrations, the formulation is diluted with emulsifier-containing water.

Musca domestica = Musca domestica test; type: in vivo; conditions: application rate 100 ppm; after 2 days; adult houseflies; 100% = all flies killed
Description: • Solvent: dimethyl sulfoxide
To produce a suitable preparation of active compound, 10 mg of active compound are mixed with 0.5 ml of dimethyl sulfoxide, and the concentrate is diluted with water to the desired concentration.
Vessels containing a sponge treated with sugar solution and the active compound formulation of the desired concentration are populated with 10 adult houseflies (Musca domestica).
After 2 days, the kill in % is determined. 100% means that all of the flies have been killed; 0% means that none of the flies have been killed.

SMILES | pest or weed control at 500 g/ha (Myzus persicae) | efficacy (kill) (Musca domestica)
CON(C)C(=O)c1cc2cn(-c3cccnc3)nc2cn1 [Compound 11] | 90% | 
CNC(=O)c1cc2cn(-c3cnccn3)nc2cn1 [Compound 14] | 90% | 80%
CNC(=O)c1cc2cn(-c3cncc(F)c3)nc2cn1 [Compound 19] | 90% | 
CN(C)C(=O)c1cc2cn(-c3cncc(F)c3)nc2cn1 [Compound 20] | 90% | 
CON(C)C(=O)c1cc2cn(-c3cncc(F)c3)nc2cn1 [Compound 26] | 90% | 
O=C(NC1CC1)c1cc2cn(-c3cccnc3)nc2cn1 [Compound 29] | 90% | 
CCNC(=O)c1cc2cn(-c3cccnc3)nc2cn1 [Compound 31] | 90% | 
O=C(NCC(F)F)c1cc2cn(-c3cccnc3)nc2cn1 [Compound 36] | 90% | 

— patent publication US9832999B1, “Bicyclic compounds as pest control agents” (BAYER CROPSCIENCE AKTIENGESELLSCHAFT, priority 2014, dated 2017)
